Assay results taken from patent publication US4988723A, “Benzopyran derivatives and their use as anti-hypertensives” (Fujisawa Pharmaceutical Co., Ltd., priority 1988, dated 1991).

Experiments:
[1] = system: normotensive rats (male Wistar strain); assay: Effect on normotensive rats (hypotensive activity, mean arterial pressure after intravenous dosing); format: in vivo, rat; conditions: 1.0 mg/kg intravenously
Description: Male Wistar strain rats aged 10-11 weeks, weighing about 250 g were used after going unfed overnight. Under ether anesthesia, polyethylene cannula were inserted in the femoral artery for measuring blood pressure and in the femoral vein for injection of the test compound. About 2 hours after the operation, test compound was given intravenously. Blood pressure was measured at the femoral artery by means of a pressure transducer and recorded as electrically integrated values of mean arterial pressure.

[2] = system: spontaneous hypertensive rats; assay: Effect on spontaneous hypertensive rats (hypotensive activity, mean blood pressure after oral dosing); format: in vivo, rat
Description: 14 to 17-week-old male spontaneous hypertensive rats with mean arterial blood pressure of about 150 mmHg, weighing 300-375 g, were used. The animals were cannulated in the left femoral artery and the mean blood pressure and heart rate were measured with a pressure-transducer. The drugs were given orally. The animals were deprived of food for about 18 hours before oral dosing. The test drugs were suspended in 0.5% methylcellulose, and given in oral dose of 0.1 mg/kg and 1.0 mg/kg.

Row | SMILES | Effect Max (maximum decrease of blood pressure, mean ratio) [1] [%] | Effect max (maximum decrease of blood pressure, mean ratio) ([2]; 0.1 mg/kg orally) [%] | T 1/2 (duration of half of maximum decrease of blood pressure) ([2]; 0.1 mg/kg orally) [h] | Effect max (maximum decrease of blood pressure, mean ratio) ([2]; 1.0 mg/kg orally) [%] | T 1/2 (duration of half of maximum decrease of blood pressure) ([2]; 1.0 mg/kg orally) [h]
1 | CN1CCN([C@@H]2c3cc(C#N)ccc3OC(C)(C)[C@H]2O)C1=NC#N (relative stereo) [trans-4-(2-Cyanoimino-3-methylimidazolidin-1-yl)-3,4-dihydro-3-hydroxy-2,2-dimethyl-2H-1-benzopyran-6-carbonitrile] | 48.0 | – | – | – | –
2 | CC1(C)Oc2ccc(C#N)cc2[C@@H](N2CCSC2=NC#N)[C@@H]1O [(3S,4R)-4-(2-Cyanoiminothiazolidin-3-yl)-3,4-dihydro-3-hydroxy-2,2-dimethyl-2H-1-benzopyran-6-carbonitrile] | – | 20.7 | 2.25 | 60.0 | 3.75
